Test system: Ba/F3 cells KRAS G12C
Experiment: Ba/F3 proliferation assay (KRAS G12C)
Assay type: cell-based
Settings: Mus musculus, BaF3, 72 h, AlamarBlue viability
Protocol: (§1) Ba/F3 cells are ordered from DSMZ (ACC300, Lot17) and grown in RPMI-1640 (ATCC 30-2001)+10% FCS+10 ng/mL IL-3 at 37° C. in 5% […] atmosphere. Plasmids containing KRASG12 mutants (i.e. […], G12C, G12V) are obtained from GeneScript. To generate KRASG12-dependent Ba/F3 models, Ba/F3 cells are transduced with retroviruses containing vectors that harbor KRASG12 isoforms. Platinum-E cells (Cell Biolabs) are used for retrovirus packaging. Retrovirus is added to Ba/F3 cells. To ensure infection, 4 μg/mL polybrene is added and cells are spinfected. Infection efficiency is confirmed by measuring GFP-positive cells using a cell analyzer. Cells with an infection efficiency of 10% to 20% are further cultivated and puromycin selection with 1 μg/mL is initiated. As a control, parental Ba/F3 cells are used to show selection status. Selection is considered successful when parental Ba/F3 cells cultures died. To evaluate the transforming potential of KRASG12 mutations, the growth medium is no longer supplemented with IL-3. Ba/F3 cells harboring the empty vector are used as a control. Approximately ten days before conducting the experiments, puromycin is left out.
(§2) For proliferation assays, Ba/F3 cells are seeded into 384-well plates at 1.5×1 (M cells/60 μL in growth media (RPMI-1640+10% FCS). Compounds (10 mM stock in DMSO) are added at logarithmic dose series using the ECHO acoustic liquid handler system (Beckman Coulter), normalizing for added DMSO and including DMSO controls. All compound treatments are performed in technical duplicates. For the TO time point measurement, untreated cells are analyzed at the time of compound addition. Treated cells are incubated for 72 h at 37° C. with 5% CO2 and cell viability is measured in the PerkinElmer Envision Multimode Reader using AlamarBlue™ (ThermoFisher) viability stain. Viability (stated as percent of control) is defined as relative fluorescence units RFU of each well divided by the RFU of cells in DMSO controls. IC50 values are determined from viability measurements by non-linear regression using a four-parameter model.

SMILES | IC50
C[C@H](Oc1nc(-c2onc3c2CCC[C@@]32CCCc3sc(N)c(C#N)c32)nc2c1N(C)C(=O)CN2[C@@H]1CCOC1)[C@@H]1CCCN1C [I-37] | 265 nM
C[C@H](Oc1nc(-c2onc3c2CCC[C@@]32CCCc3sc(N)c(C#N)c32)nc2c1n(C)c(=O)n2[C@H]1CCCOC1)[C@@H]1CCCN1C [I-11] | 310 nM
C[C@H](Oc1nc(-c2onc3c2CCC[C@@]32CCCc3sc(N)c(C#N)c32)nc2c1ncn2[C@@H]1CCOC1)[C@@H]1CCCN1C [I-38] | 33 nM
CO[C@H]1CCN(C)[C@@H]1[C@H](C)Oc1nc(-c2onc3c2CCC[C@@]32CCCc3sc(N)c(C#N)c32)nc2c1n(C)c(=O)n2[C@@H]1CCCOC1 [I-6] | 4 nM
CO[C@H]1CCN(C)[C@@H]1[C@H](C)Oc1nc(-c2noc3c2CCC[C@@]32CCCc3sc(N)c(C#N)c32)nc2c1n(C)c(=O)n2[C@@H]1CCCOC1 [II-3] | 3 nM
C[C@H](Oc1nc(-c2onc3c2CCC[C@@]32CCCc3sc(N)c(C#N)c32)nc2c1n(C)c(=O)n2[C@@H]1CCOC1)[C@@H]1CC[C@H](C)N1C [I-26] | 3 nM
C[C@H](Oc1nc(-c2onc3c2CCC[C@@]32CCCc3sc(N)c(C#N)c32)nc2c1n(C)c(=O)n2[C@@H]1CC2CCC1O2)[C@@H]1CCCN1C (stereo partly shown) [I-18] | 109 nM

Test system: Ba/F3 cells KRAS G12V
Experiment: Ba/F3 proliferation assay (KRAS G12V)
Assay type: cell-based
Settings: Mus musculus, BaF3, 72 h, AlamarBlue viability
Protocol: as §1, §2

SMILES | IC50
C[C@H](Oc1nc(-c2onc3c2CCC[C@@]32CCCc3sc(N)c(C#N)c32)nc2c1N(C)C(=O)CN2[C@@H]1CCOC1)[C@@H]1CCCN1C [I-37] | 127 nM
C[C@H](Oc1nc(-c2onc3c2CCC[C@@]32CCCc3sc(N)c(C#N)c32)nc2c1n(C)c(=O)n2[C@H]1CCCOC1)[C@@H]1CCCN1C [I-11] | 128 nM
C[C@H](Oc1nc(-c2onc3c2CCC[C@@]32CCCc3sc(N)c(C#N)c32)nc2c1ncn2[C@@H]1CCOC1)[C@@H]1CCCN1C [I-38] | 20 nM
CO[C@H]1CCN(C)[C@@H]1[C@H](C)Oc1nc(-c2onc3c2CCC[C@@]32CCCc3sc(N)c(C#N)c32)nc2c1n(C)c(=O)n2[C@@H]1CCCOC1 [I-6] | 2 nM
CO[C@H]1CCN(C)[C@@H]1[C@H](C)Oc1nc(-c2noc3c2CCC[C@@]32CCCc3sc(N)c(C#N)c32)nc2c1n(C)c(=O)n2[C@@H]1CCCOC1 [II-3] | 2 nM
C[C@H](Oc1nc(-c2onc3c2CCC[C@@]32CCCc3sc(N)c(C#N)c32)nc2c1n(C)c(=O)n2[C@@H]1CCOC1)[C@@H]1CC[C@H](C)N1C [I-26] | 2 nM
C[C@H](Oc1nc(-c2onc3c2CCC[C@@]32CCCc3sc(N)c(C#N)c32)nc2c1n(C)c(=O)n2[C@@H]1CC2CCC1O2)[C@@H]1CCCN1C (stereo partly shown) [I-18] | 69 nM

Test system: LOVO cells
Experiment: LOVO CTG proliferation assay (120 h) (CRC, G13D)
Assay type: cell-based
Settings: Homo sapiens
Protocol: LOVO cells (ATCC No. CCL-229) are dispensed into black 384-well plates, flat and clear bottom (Greiner, PNr. 781091) at a density of 1000 cells per well in 60 μl DMEM (Sigma D6429)+10% FCS (fetal calf serum, HyClone, SH30084.03). Cells are incubated overnight at 37° C. in a humidified tissue culture incubator at 5% CO2. Compounds (10 mM stock in DMSO) are added at logarithmic dose series using the ECHO acoustic liquid handler system (Beckman Coulter), normalizing for added DMSO and including DMSO controls. All compound treatments are performed in technical duplicates. For the TO time point measurement, untreated cells are analyzed at the time of compound addition. Plates are incubated for 120 h, and cell viability is measured using CellTiter-Glo luminescent cell viability reagent (Promega product code G7570). Viability (stated as percent of control) is defined as relative luminescence units RLU of each well divided by the RLU of cells in DMSO controls. IC50 values are determined from viability measurements by non-linear regression using a four-parameter model.
IC50 values of representative compounds according to the invention measured with these assays in the indicated cell lines are presented in Table 46.

SMILES | IC50
C[C@H](Oc1nc(-c2onc3c2CCC[C@@]32CCCc3sc(N)c(C#N)c32)nc2c1N(C)C(=O)CN2[C@@H]1CCOC1)[C@@H]1CCCN1C [I-37] | 31 nM
C[C@H](Oc1nc(-c2onc3c2CCC[C@@]32CCCc3sc(N)c(C#N)c32)nc2c1n(C)c(=O)n2[C@H]1CCCOC1)[C@@H]1CCCN1C [I-11] | 541 nM
C[C@H](Oc1nc(-c2onc3c2CCC[C@@]32CCCc3sc(N)c(C#N)c32)nc2c1ncn2[C@@H]1CCOC1)[C@@H]1CCCN1C [I-38] | 114 nM
CO[C@H]1CCN(C)[C@@H]1[C@H](C)Oc1nc(-c2onc3c2CCC[C@@]32CCCc3sc(N)c(C#N)c32)nc2c1n(C)c(=O)n2[C@@H]1CCCOC1 [I-6] | 3 nM
CO[C@H]1CCN(C)[C@@H]1[C@H](C)Oc1nc(-c2noc3c2CCC[C@@]32CCCc3sc(N)c(C#N)c32)nc2c1n(C)c(=O)n2[C@@H]1CCCOC1 [II-3] | 2 nM
C[C@H](Oc1nc(-c2onc3c2CCC[C@@]32CCCc3sc(N)c(C#N)c32)nc2c1n(C)c(=O)n2[C@@H]1CCOC1)[C@@H]1CC[C@H](C)N1C [I-26] | 11 nM
C[C@H](Oc1nc(-c2onc3c2CCC[C@@]32CCCc3sc(N)c(C#N)c32)nc2c1n(C)c(=O)n2[C@@H]1CC2CCC1O2)[C@@H]1CCCN1C (stereo partly shown) [I-18] | 49 nM

Test system: not listed separately
Experiment: Plasma protein binding assay (PPB), equilibrium dialysis
Assay type: in vitro ADME
Settings: bovine, 10% FCS in PBS, read-out: PPB 10% FCS (% fu)
Protocol: Binding of test compounds to plasma was determined using equilibrium dialysis (ED) and quantitative mass spectrometry interfaced with liquid chromatography (LC-MS). In brief, ED was performed with dialysis devices consisting of two chambers separated by a semipermeable membrane with a molecular weight cut-off of 5-10 kg/mol. One chamber was filled with 10% FCS in PBS containing 1-10 μmol/L test compound and the other chamber was filled with phosphate-buffer saline (PBS) with or without dextran. The dialysis chamber was incubated for 3-5 hours at 37° C. After incubation, protein was precipitated from aliquots of each chamber and the concentration of test compound in the supernatant of the plasma-containing compartment (cserum) and of the buffer-containing compartment (cbuffer) was determined by LC-MS. The fraction of unbound test compound (not bound to plasma) (f) was calculated according to the following equation: […]

SMILES | fraction unbound
C[C@H](Oc1nc(-c2onc3c2CCC[C@@]32CCCc3sc(N)c(C#N)c32)nc2c1N(C)C(=O)CN2[C@@H]1CCOC1)[C@@H]1CCCN1C [I-37] | 0.13
C[C@H](Oc1nc(-c2onc3c2CCC[C@@]32CCCc3sc(N)c(C#N)c32)nc2c1n(C)c(=O)n2[C@H]1CCCOC1)[C@@H]1CCCN1C [I-11] | 0.06
C[C@H](Oc1nc(-c2onc3c2CCC[C@@]32CCCc3sc(N)c(C#N)c32)nc2c1ncn2[C@@H]1CCOC1)[C@@H]1CCCN1C [I-38] | 0.34
CO[C@H]1CCN(C)[C@@H]1[C@H](C)Oc1nc(-c2onc3c2CCC[C@@]32CCCc3sc(N)c(C#N)c32)nc2c1n(C)c(=O)n2[C@@H]1CCCOC1 [I-6] | 0.17
CO[C@H]1CCN(C)[C@@H]1[C@H](C)Oc1nc(-c2noc3c2CCC[C@@]32CCCc3sc(N)c(C#N)c32)nc2c1n(C)c(=O)n2[C@@H]1CCCOC1 [II-3] | 0.03
C[C@H](Oc1nc(-c2onc3c2CCC[C@@]32CCCc3sc(N)c(C#N)c32)nc2c1n(C)c(=O)n2[C@@H]1CCOC1)[C@@H]1CC[C@H](C)N1C [I-26] | 0.17
C[C@H](Oc1nc(-c2onc3c2CCC[C@@]32CCCc3sc(N)c(C#N)c32)nc2c1n(C)c(=O)n2[C@@H]1CC2CCC1O2)[C@@H]1CCCN1C (stereo partly shown) [I-18] | 0.2
